Measured values as given in patent publication US20260234165A1, “MACROCYCLIC COMPOUNDS, PREPARATION METHOD THEREFOR, AND USE THEREOF” (GENFLEET THERAPEUTICS (SHANGHAI) INC., priority 2004, published 2026).
Where two headings read alike, the source gives them in different places.

Key:
Format in all cases: cell-based, human
[1] = system: p-ERK in NCI-H441 cells (KRAS G12V mutation); experiment: Cell p-ERK assay (HTRF) in NCI-H441 cells
In short: (§1)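 Phospho-ERK inhibition measured by HTRF after a 3 h compound exposure (0.1% DMSO) in overnight-seeded cells; IC50 derived from dose-response fitting.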

[2] = system: AsPC-1 cells (KRAS G12D mutation); experiment: 3D cell proliferation assay (CellTiter Glo-3D), AsPC-1; details: medium with 2% FBS, read-out: AsPC-1 AP IC50
In short: (§2)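 800 cells/well (NCI-H441, […]; AsPC-1, KRAS G12D), low-serum RPMI-1640 (2% FBS), overnight attach; 3.16-fold serial dilutions added, 0.1% DMSO; 5 d, 37 °C; CellTiter-Glo 3D RLU; IC50, 4-parameter fit.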

NCI-H441 cells = experiment: 3D cell proliferation assay (CellTiter Glo-3D), NCI-H441; details: medium with 2% FBS, read-out: H441 AP IC50
In short: as §2

[3] = system: p-ERK in AsPC-1 cells (KRAS G12D mutation); experiment: Cell p-ERK assay (HTRF) in AsPC-1 cells
In short: as §1

[4] = Homo sapiens, NCI-H441, 3 h, NCI-H441 cells, 3 h compound incubation, HTRF p-ERK T202/Y204, read-out: H441 p-ERK IC50
[5] = Homo sapiens, ASPC1, 3D cell proliferation (CellTiter Glo-3D)
[6] = Homo sapiens, NCI-H441, 3D cell proliferation (CellTiter Glo-3D)
[7] = Homo sapiens, ASPC1, 3 h, AsPC-1 cells, 3 h compound incubation, HTRF p-ERK T202/Y204, read-out: AsPC-1 p-ERK IC50
[8] = NCI-H441 cells, 3 h compound incubation, HTRF p-ERK T202/Y204, read-out: H441 p-ERK IC50
[9] = 3D cell proliferation (CellTiter Glo-3D)
[10] = AsPC-1 cells, 3 h compound incubation, HTRF p-ERK T202/Y204, read-out: AsPC-1 p-ERK IC50

SMILES	IC50 [1, 4] [nM]	IC50 [2, 5] [nM]	IC50 (NCI-H441 cells; [6]) [nM]	IC50 [3, 7] [nM]	IC50 ([1]; Homo sapiens, NCI-H441, 3 h, read-out: H441 p-ERK IC50(nM)) [nM]	IC50 (NCI-H441 cells; Homo sapiens, 3D cell proliferation (CellTiter Glo-3D)) [nM]	IC50 ([3]; Homo sapiens, ASPC1, 3 h, read-out: AsPC-1 p-ERK IC50(nM)) [nM]	IC50 [1, 8] [nM]	IC50 [2, 9] [nM]	IC50 (NCI-H441 cells; [9]) [nM]	IC50 [3, 10] [nM]
CCn1c(-c2cc(OC[C@@H]3CCCN3Cc3ccn(C)n3)cnc2[C@H](C)OC)c2c3cc(ccc31)-c1csc(n1)C[C@H](NC(=O)[C@H]1[C@H](C)[C@@H]1C)C(=O)N1CCC[C@H](N1)C(=O)OCC(C)(C)C2 (atropisomer, axis not shown; (Ra)) [Compound Z784-1, (1r,2R,3S)—N-((6^3S,4S,Z)—(Ra)-1^2-5-(((S)-1-((1-methyl-1H-pyrazol-3-yl)methyl)pyrrolidin-2-yl)methoxy)-(2-((S)-1-methoxyethyl)-pyridin-3-yl)-10,10-dimethyl-5,7-dioxo-6^1,6^2,6^3,6^4,6^5,6^6-hexahydro-1^1H-8-oxa-2(4,2)-thiazola-1(5,3)-indola-6(1.3)-pyridazinacycloundecaphane-4-yl)-2,3-dimethylcyclopropane-1-carboxamide]	0.9	1.37	0.93	0.89							
COCCn1c(-c2cc(C#CCN(C)C[Si](C)(C)C)cnc2[C@H](C)OC)c2c3cc(ccc31)-c1csc(n1)C[C@H](NC(=O)[C@H]1[C@@H]3COC[C@@H]31)C(=O)N1CCC[C@H](N1)C(=O)OCC(C)(C)C2 (atropisomer, axis not shown; (Ra)) [Compound Z1091, (1R,5S,6r)-N-((6^3S,4S,Z)-1^1-(2-methoxyethyl)-1^2-(Ra)-(2-((S)-1-methoxyethyl)-5-(3-(methyl((trimethylsilyl)methyl)amino)prop-1-yn-1-yl)pyridin-3-yl)-10,10-dimethyl-5,7-dioxo-6^1,6^2,6^3,6^4,6^5,6^6-hexahydro-1^1H-8-oxa-2(4,2)-thiazola-1(5,3)-indola-6(1,3)-pyridazinacycloundecaphane-4-yl)-3-oxabicyclo[3.1.0]hexane-6-carboxamide]		1.67			1.92	2.01	2.34				
CCn1c(-c2cc(C#CCN3CC[C@H](C#N)C3)cnc2[C@H](C)OC)c2c3cc(ccc31)-c1csc(n1)C[C@H](Nc1nnc3cc(C)ccn13)C(=O)N1CCC[C@H](N1)C(=O)OCC(C)(C)C2 (atropisomer, axis not shown; (Ra)) [Compound Z1011, (3S)-1-(3-(5-((6^3S,4S,Z)—(Ra)-1^1-ethyl-10,10-dimethyl-4-((7-methyl-[1,2,4]triazolo[4,3-a]pyridin-3-yl)amino)-5,7-dioxo-6^1,6^2,6^3,6^4,6^5,6^6-hexahydro-1^1H-8-oxa-2(4,2)-thiazola-1(5,3)-indola-6(1,3)-pyridazinacycloundecaphane-1-yl)-6-((S)-1-methoxyethyl)pyridin-3-yl)prop-2-yn-1-yl)pyrrolidine-3-carbonitrile]								1.22	2.07	1.54	2.89
CCn1c(-c2cc(C#CCN3CCS(=N)(=O)CC3)cnc2[C@H](C)OC)c2c3cc(ccc31)-c1csc(n1)C[C@H](NC(=O)[C@H]1[C@H](C)[C@@H]1C)C(=O)N1CCC[C@H](N1)C(=O)OCC(C)(C)C2 (atropisomer, axis not shown; (Ra)) [Compound Z850, (1r,2R,3S)—N-((6^3S,4S,Z)-1^1-ethyl-(Ra)-1^2-(5-(3-(1-imino-1-oxo-11^6-thiomorpholino)prop-1-yn-1-yl)-2-((S)-1-methoxyethyl)pyridin-3-yl)-10,10-dimethyl-5,7-dioxo-6^1,6^2,6^3,6^4,6^5,6^6-hexahydro-1^1-8-oxa-2(4,2)-thiazola-1(5,3)-indola-0(1,3)-pyridazinacycloundecaphane-4-yl)-2.3-dimethylcyclopropane-1-carboxamide]	0.25	0.08	0.13	0.18							
CCn1c(-c2cc(OCCN3CCOC4(CC4)C3)cnc2[C@H](C)OC)c2c3cc(ccc31)-c1csc(n1)C[C@H](NC(=O)[C@H]1[C@H](C)[C@@H]1C)C(=O)N1CCC[C@H](N1)C(=O)OCC1(CC1)C2 (atropisomer, axis not shown; (Ra)) [Compound Z375]	0.91	6.9	3.7	3.92							
CCn1c(-c2cc(C#CCN3CCC3)cnc2[C@H](C)OC)c2c3cc(ccc31)-c1csc(n1)C[C@H](NC(=O)[C@H]1[C@H](C)[C@@H]1C)C(=O)N1CCC[C@H](N1)C(=O)OCC(C)(C)C2 (atropisomer, axis not shown; (Sa)) [Compound Z555, (1r,2R,3S)—N-((6^3S,4S,Z)—(Sa)-1^2-(5-(3-(azetidin-1-yl)prop-1-yn-1-yl)-2-((S)-1-methoxyethyl)pyridin-3-yl)-1^1-ethyl-10,10-dimethyl-5,7-dioxo-6^1,6^2,6^3,6^4,6^5,6^6-hexahydro-1^1H-8-oxa-2(4,2)-thiazola-1(5,3)-indola-6(1,3)-pyridazinacycloundecaphane-4-yl)-2,3-dimethylcyclopropane-1-carboxamide]								11.2	30.4	18.4	13.4
CCn1c(-c2cc(C#CCN3CC(F)(F)C3)cnc2[C@H](C)OC)c2c3cc(ccc31)-c1csc(n1)C[C@H](NC(=O)[C@H]1[C@H](C)[C@@H]1C)C(=O)N1CCC[C@H](N1)C(=O)OCC(C)(C)C2 [Compound Z390-1, (2R,3S)—N-((6^3S,4S,Z)-1^2-(5-(3-(3,3-difluoroazetidin-1-yl)prop-1-yn-1-yl)-2-((S)-1-methoxyethyl)pyridin-3-yl)-1^1-ethyl-10,10-dimethyl-5,7-dioxo-6^1,6^2,6^3,6^4,6^5,6^6-hexahydro-1^1H-8-oxa-2(4,2)-thiazola-1(5,3)-indola-6(1,3)-pyridazinacycloundecaphane-4-yl)-2,3-dimethylcyclopropane-1-carboxamide]	0.4	0.54	0.48	0.34							
[2H]C([2H])([2H])O[C@@H](C)c1ncc(N2CCN(C)CC2)cc1-c1c2c3cc(ccc3n1CC)-c1csc(n1)C[C@H](NC(=O)C(C)(C)F)C(=O)N1CCC[C@H](N1)C(=O)OCC(C)(C)C2 (atropisomer, axis not shown; (Ra)) [Compound Z64, N-((1^2R,6^3S,4S,Z)-1^1-ethyl-(Ra)-1^2-(2-((S)-1-(methoxy-d3)ethyl)-5-(4-methylpiperazin-1-yl)pyridin-3-yl)-10,10-dimethyl-5,7-dioxo-6^1,6^2,6^3,6^4,6^5,6^6-hexahydro-1^1H-8-oxa-2(4,2)-thiazola-1(5,3)-indola-6(1,3)-pyridazinacycloundecaphane-4-yl)-2-fluoro-2-methylpropanamide]	3.32	12.8	6.27	6.24							
CO[C@@H](C)c1ncc(C#CCN2CCS(=O)(=O)CC2)cc1-c1c2c3cc(ccc3n1CCO)-c1csc(n1)C[C@H](NC(=O)[C@H]1[C@H](C)[C@@H]1C)C(=O)N1CCC[C@H](N1)C(=O)OCC(C)(C)C2 (atropisomer, axis not shown; (Ra)) [Compound Z952, (1r,2R,3S)—N-((6^3S,4S,Z)—(Ra)-1^2-(5-(3-(1,1-dioxidothiomorpholino)prop-1-yn-1-yl)-2-((S)-1-methoxyethyl)pyridin-3-yl)-1^1-(2-hydroxyethyl)-10,10-dimethyl-5,7-dioxo-6^1,6^2,6^3,6^4,6^5,6^6-hexahydro-1^1H-8-oxa-2(4,2)-thiazola-1(5,3)-indola-6(1,3)-pyridazinacycloundecaphane-4-yl)-2,3-dimethylcyclopropane-1-carboxamide]	0.54	0.27	0.34	0.53							
CCn1c(-c2cc(C#CC3(N4CCC4)CC3)cnc2[C@H](C)OC)c2c3cc(ccc31)-c1csc(n1)C[C@H](NC(=O)[C@H]1[C@H](C)[C@@H]1C)C(=O)N1CCC[C@H](N1)C(=O)OCC(C)(C)C2 (atropisomer, axis not shown; (Ra)) [Compound Z836-1, (1r,2R,3S)—N-((4S,Z)—(Ra)-1^2-(5-((1-(azetidin-1-yl)cyclopropyl)ethynyl)-2-((S)-1-methoxyethyl)pyridin-3-yl)-1^1-ethyl-10,10-dimethyl-5,7-dioxo-6^1,6^2,6^3,6^4,6^5,6^6-hexahydro-1^1H-8-oxa-2(4,2)-thiazola-1(5,3)-indola-6(1,3)-pyridazinacycloundecaphane-4-yl)-2,3-dimethylcyclopropane-1-carboxamide]								0.83	1.05	0.64	0.5
CCn1c(-c2cc([C@@H]3CCN4CCOC[C@H]4C3)cnc2[C@H](C)OC)c2c3cc(ccc31)-c1csc(n1)C[C@H](NC(=O)[C@H]1[C@H](C)[C@@H]1C)C(=O)N1CCC[C@H](N1)C(=O)OCC1(CC1)C2 (single isomer, unassigned) [Compound Z80]	11.7	19	7.27	25.3							
